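Tested at 5 concentrations; 48 h exposure; 96-well plates; endpoints linearly interpolated, else capped at highest concentration. GI50: concentration for 50% inhibition of growth.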 Calls of active or inactive are those of the source. Rule as the data show it: active = GI50 up to about 1.1 µM and inactive = higher.
Assays:
Assay in all cases: growth of human tumour cells (NCI), 48 h
[1] = system: SF-295
[2] = system: Hs-578T
[3] = system: HOP-62
[4] = system: SR
[5] = system: OVCAR-8
[6] = system: UO-31
[7] = system: MDA-MB-435
[8] = system: PC-3
[9] = system: NCI-H522
[10] = system: LOX IMVI
[11] = system: A549
[12] = system: SN12C
[13] = system: SK-MEL-2
[14] = system: HCT-116
[15] = system: CAKI-1
[16] = system: NCI/ADR-RES
[17] = system: BT-549
[18] = system: ACHN
[19] = system: COLO 205
[20] = system: CCRF-CEM

Row | SMILES | GI50 [1] | GI50 [2] | GI50 [3] | GI50 [4] | GI50 [5] | GI50 [6] | GI50 [7] | GI50 [8] | GI50 [9] | GI50 [10] | GI50 [11] | GI50 [12] | GI50 [13] | GI50 [14] | GI50 [15] | GI50 [16] | GI50 [17] | GI50 [18] | GI50 [19] | GI50 [20]
1 | O=c1[nH]c2c(S)nc(O)nc2n1-c1ccccc1 | > 100 µM (inactive) | > 100 µM (inactive) | > 100 µM (inactive) | > 100 µM (inactive) | > 100 µM (inactive) | > 100 µM (inactive) | > 100 µM (inactive) | > 100 µM (inactive) | > 100 µM (inactive) | > 100 µM (inactive) | > 100 µM (inactive) | > 100 µM (inactive) | > 100 µM (inactive) | > 100 µM (inactive) | > 100 µM (inactive) | > 100 µM (inactive) | > 100 µM (inactive) | > 100 µM (inactive) |  | 
2 | CC1=C2c3ccccc3N(S(=O)(=O)c3ccccc3)[C@H]2[C@H](C(=O)N2C3CC4CC[C@@]3(CS2(=O)=O)C4(C)C)CC1 (some centres not stated) | 1.71 µM (inactive) | 0.627 µM (active) | 16.4 µM (inactive) | 12.5 µM (inactive) | 21.6 µM (inactive) | 9.06 µM (inactive) | 56.5 µM (inactive) | 8.67 µM (inactive) | 10.8 µM (inactive) | 23.6 µM (inactive) | 35.3 µM (inactive) | 39.1 µM (inactive) |  | 11.7 µM (inactive) | 11.2 µM (inactive) | 35.9 µM (inactive) | 8.28 µM (inactive) | 34.3 µM (inactive) | 47.9 µM (inactive) | 35.3 µM (inactive)
3 | COc1ccc(CN2C(=O)CCC/C=C\[C@H]2CI)cc1 | 13.5 µM (inactive) | 14.2 µM (inactive) | 16 µM (inactive) | 11.5 µM (inactive) | 14.4 µM (inactive) | 11.6 µM (inactive) | 12.7 µM (inactive) | 8.07 µM (inactive) | 12.7 µM (inactive) | 17.6 µM (inactive) | 10 µM (inactive) | 14 µM (inactive) | 11 µM (inactive) | 11.7 µM (inactive) | 10.3 µM (inactive) | 13.7 µM (inactive) | 19.5 µM (inactive) | 14.3 µM (inactive) | 13.9 µM (inactive) | 
4 | N#Cc1c(N2CCCC2)ncn(Cc2ccccc2)c1=O | > 100 µM (inactive) | > 100 µM (inactive) | > 100 µM (inactive) | > 100 µM (inactive) | > 100 µM (inactive) | > 100 µM (inactive) | > 100 µM (inactive) | > 100 µM (inactive) | > 100 µM (inactive) | > 100 µM (inactive) | > 100 µM (inactive) | > 100 µM (inactive) | > 100 µM (inactive) | > 100 µM (inactive) |  | > 100 µM (inactive) | > 100 µM (inactive) | > 100 µM (inactive) | > 100 µM (inactive) | > 100 µM (inactive)
5 | C=CCNC(=O)NC1=CSC2=NC(=O)C3(NN12)c1ccccc1-c1ccccc13 | > 10 µM (inactive) | 4.16 µM (inactive) | > 10 µM (inactive) | > 10 µM (inactive) | > 10 µM (inactive) | 8.24 µM (inactive) | > 10 µM (inactive) | > 10 µM (inactive) | > 10 µM (inactive) | > 10 µM (inactive) | > 10 µM (inactive) | > 10 µM (inactive) |  | > 10 µM (inactive) | > 10 µM (inactive) | > 10 µM (inactive) | > 10 µM (inactive) | > 10 µM (inactive) | > 10 µM (inactive) | > 10 µM (inactive)
6 | CC(=O)N1CCOC12N=NC(C)(C)O2 (configuration not stated) | > 100 µM (inactive) | > 100 µM (inactive) | > 100 µM (inactive) | > 100 µM (inactive) | > 100 µM (inactive) | > 100 µM (inactive) | > 100 µM (inactive) | > 100 µM (inactive) | > 100 µM (inactive) | > 100 µM (inactive) | > 100 µM (inactive) | > 100 µM (inactive) | > 100 µM (inactive) | > 100 µM (inactive) | > 100 µM (inactive) | > 100 µM (inactive) | > 100 µM (inactive) | > 100 µM (inactive) | > 100 µM (inactive) | 
7 | c1ccc2/c3[nH]/c(c2c1)=N\c1ccc(cc1)-c1nc2cc(ccc2o1)/N=c1/[nH]/c(c2ccccc12)=N/c1ccc2nc(oc2c1)-c1ccc(cc1)\N=3 | > 100 µM (inactive) | > 100 µM (inactive) | 78.3 µM (inactive) | > 100 µM (inactive) |  | > 100 µM (inactive) | 42.4 µM (inactive) | > 100 µM (inactive) | > 100 µM (inactive) | > 100 µM (inactive) |  | > 100 µM (inactive) |  | > 100 µM (inactive) | > 100 µM (inactive) | 32.1 µM (inactive) | > 100 µM (inactive) | > 100 µM (inactive) | > 100 µM (inactive) | > 100 µM (inactive)
8 | CC1=NN(c2nc(N)nc(CF)n2)C(C)(C)C1 | > 100 µM (inactive) | > 100 µM (inactive) | > 100 µM (inactive) | > 100 µM (inactive) | > 100 µM (inactive) | > 100 µM (inactive) | > 100 µM (inactive) | > 100 µM (inactive) |  | > 100 µM (inactive) |  |  | > 100 µM (inactive) | > 100 µM (inactive) | > 100 µM (inactive) | > 100 µM (inactive) | > 100 µM (inactive) | > 100 µM (inactive) | > 100 µM (inactive) | > 100 µM (inactive)
9 | CC1(C)O[C@@H]2[C@@H](COC(=O)c3ccccc3)C[C@@H](C#N)[C@@H]2O1 | > 100 µM (inactive) | 29.2 µM (inactive) | > 100 µM (inactive) | > 100 µM (inactive) | > 100 µM (inactive) | > 100 µM (inactive) | > 100 µM (inactive) | > 100 µM (inactive) | > 100 µM (inactive) | > 100 µM (inactive) | > 100 µM (inactive) | > 100 µM (inactive) |  | > 100 µM (inactive) |  | > 100 µM (inactive) | > 100 µM (inactive) | > 100 µM (inactive) | > 100 µM (inactive) | > 100 µM (inactive)
10 | CC(=O)Oc1ccc2c(c1)O/C(=C\c1ccc(O)cc1)C2=O | > 100 µM (inactive) | 27.5 µM (inactive) | > 100 µM (inactive) | > 100 µM (inactive) | > 100 µM (inactive) | > 100 µM (inactive) | > 100 µM (inactive) | > 100 µM (inactive) | 28.4 µM (inactive) |  | > 100 µM (inactive) | > 100 µM (inactive) |  | > 100 µM (inactive) | > 100 µM (inactive) | > 100 µM (inactive) | > 100 µM (inactive) | > 100 µM (inactive) | > 100 µM (inactive) | > 100 µM (inactive)
11 | C#CCNC(Cc1ccccc1)C(=O)O (configuration not stated) | > 100 µM (inactive) | > 100 µM (inactive) | > 100 µM (inactive) | > 100 µM (inactive) | > 100 µM (inactive) | > 100 µM (inactive) | > 100 µM (inactive) | > 100 µM (inactive) | > 100 µM (inactive) | > 100 µM (inactive) | > 100 µM (inactive) |  | > 100 µM (inactive) | > 100 µM (inactive) | > 100 µM (inactive) | > 100 µM (inactive) | > 100 µM (inactive) | > 100 µM (inactive) | > 100 µM (inactive) | > 100 µM (inactive)

Source: ChEMBL document CHEMBL1201862, “PubChem BioAssay data set” (2004)
